Experimental data published in ChEMBL document CHEMBL1126346, “C-linked pyrazole biaryl tetrazoles as antagonists of angiotensin II” (1992).
Activity calls are given as the source filed them. The rule behind the calls is not given here.

system: Rattus norvegicus; test: Effect on diastolic blood pressure of hypertensive rats 3 hours following 1 mg/kg p.o. administration.; type: functional, Artery; conditions: route oral

Row | Structure (SMILES) | Blood pressure [mmHg]
1 | CCCCc1nn(CC2CC2)c(C(=O)O)c1Cc1ccc(-c2ccccc2-c2nn[nH]n2)cc1 | 115

system: Rattus norvegicus; test: Effect on diastolic blood pressure of hypertensive rats 24 hours following 1 mg/kg p.o. administration.; type: functional, Artery; conditions: route oral

Row | Structure (SMILES) | Blood pressure [mmHg]
2 | CCCCc1nn(CC2CC2)c(C(=O)O)c1Cc1ccc(-c2ccccc2-c2nn[nH]n2)cc1 | 97

system: Rattus norvegicus; test: Effect on diastolic blood pressure of hypertensive rats 1 hour following 1 mg/kg p.o. administration.; type: functional, Artery; conditions: route oral

Row | Structure (SMILES) | Blood pressure [mmHg]
3 | CCCCc1nn(CC2CC2)c(C(=O)O)c1Cc1ccc(-c2ccccc2-c2nn[nH]n2)cc1 | 145

system: Rattus norvegicus; test: Effect on diastolic blood pressure of hypertensive rats immediately following 1 mg/kg p.o. administration.; type: functional, Artery; conditions: route oral

Row | Structure (SMILES) | Blood pressure [mmHg]
4 | CCCCc1nn(CC2CC2)c(C(=O)O)c1Cc1ccc(-c2ccccc2-c2nn[nH]n2)cc1 | 150

system: Rattus norvegicus; test: Effect on diastolic blood pressure of hypertensive rats 5 hours following 1 mg/kg p.o. administration.; type: functional, Artery; conditions: route oral

Row | Structure (SMILES) | Blood pressure [mmHg]
5 | CCCCc1nn(CC2CC2)c(C(=O)O)c1Cc1ccc(-c2ccccc2-c2nn[nH]n2)cc1 | 95

system: Rattus norvegicus; test: Effect on diastolic blood pressure of hypertensive rats 48 hours following 1 mg/kg p.o. administration.; type: functional, Artery; conditions: route oral

Row | Structure (SMILES) | Blood pressure [mmHg]
6 | CCCCc1nn(CC2CC2)c(C(=O)O)c1Cc1ccc(-c2ccccc2-c2nn[nH]n2)cc1 | 130

system: Rattus norvegicus; test: Effect on diastolic blood pressure of hypertensive rats 7 hours following 1 mg/kg p.o. administration.; type: functional, Artery; conditions: route oral

Row | Structure (SMILES) | Blood pressure [mmHg]
7 | CCCCc1nn(CC2CC2)c(C(=O)O)c1Cc1ccc(-c2ccccc2-c2nn[nH]n2)cc1 | 95

target: T1, Type-1 angiotensin II receptor (Oryctolagus cuniculus) (UniProt P34976); test: In vitro inhibition of ATII induced contractions of the isolated rabbit aorta.; conditions: not given
T1 sequence (whole entry): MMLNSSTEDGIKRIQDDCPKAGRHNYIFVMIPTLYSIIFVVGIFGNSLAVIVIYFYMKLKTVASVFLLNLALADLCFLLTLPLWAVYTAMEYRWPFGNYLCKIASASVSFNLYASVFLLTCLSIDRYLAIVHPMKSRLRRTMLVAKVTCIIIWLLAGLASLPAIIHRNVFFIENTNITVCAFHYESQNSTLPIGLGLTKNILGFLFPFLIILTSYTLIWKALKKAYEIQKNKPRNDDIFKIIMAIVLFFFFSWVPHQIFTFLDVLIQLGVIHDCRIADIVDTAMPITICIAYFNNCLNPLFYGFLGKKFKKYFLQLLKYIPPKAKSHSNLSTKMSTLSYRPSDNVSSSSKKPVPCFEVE

Row | Structure (SMILES) | pKB
8 | CCCCc1nn(CC(F)(F)F)c(COC)c1Cc1ccc(-c2ccccc2-c2nn[nH]n2)cc1 | 7
9 | CCCCc1nn(CC)c(C(=O)NC)c1Cc1ccc(-c2ccccc2-c2nn[nH]n2)cc1 | 7.5
10 | CCCCc1nn(CC2CC2)c(C(=O)O)c1Cc1ccc(-c2ccccc2-c2nn[nH]n2)cc1 | 10.5
11 | CCCCc1nn(CC)c(C(=O)O)c1Cc1ccc(-c2ccccc2NS(=O)(=O)C(F)(F)F)cc1 | 8
12 | CCCCc1nn(CC)c(CO)c1Cc1ccc(-c2ccccc2-c2nn[nH]n2)cc1 | 8
13 | CCCCc1c(Cc2ccc(-c3ccccc3-c3nn[nH]n3)cc2)c(C(=O)O)nn1CC(F)(F)F | 7.7
14 | CCCCc1c(Cc2ccc(-c3ccccc3-c3nn[nH]n3)cc2)c(C(=O)O)nn1CCCC | 8
15 | CCCCc1nn(CC(C)C)c(C(=O)O)c1Cc1ccc(-c2ccccc2-c2nn[nH]n2)cc1 | 11
16 | CCCCc1nn(CC(F)(F)F)c(C(=O)O)c1Cc1ccc(-c2ccccc2-c2nn[nH]n2)cc1 | 9.8
17 | CCCCc1nn(CC)c(C(=O)O)c1Cc1ccc(-c2ccccc2-c2nn[nH]n2)cc1 | 9.8
18 | CCCCc1nn(CC)c(C(=O)OCC)c1Cc1ccc(-c2ccccc2-c2nn[nH]n2)cc1 | 8
19 | CCCCc1nn(C)c(C(=O)O)c1Cc1ccc(-c2ccccc2-c2nn[nH]n2)cc1 | 9.8
20 | CCCCc1c(Cc2ccc(-c3ccccc3-c3nn[nH]n3)cc2)c(COC)nn1CC(F)(F)F | 7
21 | CCCCc1n[nH]c(C(=O)O)c1Cc1ccc(-c2ccccc2-c2nn[nH]n2)cc1 | 8.8
22 | CCCCc1nn(CC(C)(C)C)c(C(=O)O)c1Cc1ccc(-c2ccccc2-c2nn[nH]n2)cc1 | 10.6
23 | CCCCc1nn(CCC)c(C(=O)O)c1Cc1ccc(-c2ccccc2-c2nn[nH]n2)cc1 | 10.5
24 | CCCCc1nn(CCCC)c(C(=O)O)c1Cc1ccc(-c2ccccc2-c2nn[nH]n2)cc1 | 10
25 | CCCCc1nn(C(C)C)c(C(=O)O)c1Cc1ccc(-c2ccccc2-c2nn[nH]n2)cc1 | 10
26 | CCCCc1nn(C2CCC2)c(C(=O)O)c1Cc1ccc(-c2ccccc2-c2nn[nH]n2)cc1 | 10.9
27 | CCCCc1c(Cc2ccc(-c3ccccc3-c3nn[nH]n3)cc2)c(C(=O)O)nn1C(C)C | 8
28 | CCCCc1nn(CC)c(C(=O)O)c1Cc1ccc(-c2ccccc2C(=O)O)cc1 | 8

species on record: Rattus norvegicus; test: Effect on diastolic blood pressure of hypertensive rats; Inactive; type: functional, organism-based; conditions: Artery

Row | Structure (SMILES) | Blood pressure
29 | CCCCc1nn(C2CCC2)c(C(=O)O)c1Cc1ccc(-c2ccccc2-c2nn[nH]n2)cc1 | inactive
